Data published in ChEMBL document CHEMBL5303573, “Mapping human microbiome drug metabolism by gut bacteria and their genes” (Nature, 2019).

How the values were obtained:
[1] = The drug is tested on Alistipes indistinctus strain: DSM22520 for biotransformation. The drug concentrations were measured before and after a 12-h incubation by liquid-chromatography-coupled mass spectrometry (LC–MS); settings: 2 µM
[2] = The drug is tested on Clostridium asparagiforme strain: DSM15981 for biotransformation. The drug concentrations were measured before and after a 12-h incubation by liquid-chromatography-coupled mass spectrometry (LC–MS); assay type: ADME; parameters: dose 2 uM, timepoint 0 vs 12 hours; settings: enterocloster asparagiformis, 2 µM
[3] = The drug is tested on Ruminococcus lactaris strain: ATCC29176 for biotransformation. The drug concentrations were measured before and after a 12-h incubation by liquid-chromatography-coupled mass spectrometry (LC–MS); settings: 2 µM
[4] = The drug is tested on Bacteroides coprophilus strain: DSM18228 for biotransformation. The drug concentrations were measured before and after a 12-h incubation by liquid-chromatography-coupled mass spectrometry (LC–MS); settings: 2 µM
[5] = anaerostipes sp., 12 h, 2 µM
Description: The drug is tested on Anaerostipes sp. strain: fecal isolate for biotransformation. The drug concentrations were measured before and after a 12-h incubation by liquid-chromatography-coupled mass spectrometry (LC–MS)

[6] = The drug is tested on Ruminococcus gnavus strain: ATCC29149 for biotransformation. The drug concentrations were measured before and after a 12-h incubation by liquid-chromatography-coupled mass spectrometry (LC–MS); settings: mediterraneibacter gnavus, 2 µM
[7] = bifidobacterium adolescentis, 12 h, 2 µM
Description: The drug is tested on Bifidobacterium adolescentis strain: ATCC 15703 for biotransformation. The drug concentrations were measured before and after a 12-h incubation by liquid-chromatography-coupled mass spectrometry (LC–MS)

[8] = The drug is tested on Bacteroides xylanisolvens strain: DSM18836 for biotransformation. The drug concentrations were measured before and after a 12-h incubation by liquid-chromatography-coupled mass spectrometry (LC–MS); settings: 2 µM
[9] = The drug is tested on Bifidobacterium breve strain: DSM20213 for biotransformation. The drug concentrations were measured before and after a 12-h incubation by liquid-chromatography-coupled mass spectrometry (LC–MS); settings: 2 µM
[10] = The drug is tested on Bacteroides vulgatus strain: ATCC8482 for biotransformation. The drug concentrations were measured before and after a 12-h incubation by liquid-chromatography-coupled mass spectrometry (LC–MS); settings: phocaeicola vulgatus, 2 µM
[11] = bacteroides thetaiotaomicron, 12 h, 2 µM
Description: The drug is tested on Bacteroides thetaiotaomicron strain: VPI-5482 for biotransformation. The drug concentrations were measured before and after a 12-h incubation by liquid-chromatography-coupled mass spectrometry (LC–MS)

[12] = bacteroides intestinalis, 12 h, 2 µM
Description: The drug is tested on Bacteroides intestinalis strain: DSM17393 for biotransformation. The drug concentrations were measured before and after a 12-h incubation by liquid-chromatography-coupled mass spectrometry (LC–MS)

[13] = The drug is tested on Bacteroides cellulosilyticus strain: DSM14838 for biotransformation. The drug concentrations were measured before and after a 12-h incubation by liquid-chromatography-coupled mass spectrometry (LC–MS); settings: 2 µM
[14] = The drug is tested on Providencia rettgeri strain: DSM1131 for biotransformation. The drug concentrations were measured before and after a 12-h incubation by liquid-chromatography-coupled mass spectrometry (LC–MS); assay type: ADME; parameters: dose 2 uM, timepoint 0 vs 12 hours; settings: 2 µM
[15] = The drug is tested on Bacteroides ovatus strain: ATCC8483 for biotransformation. The drug concentrations were measured before and after a 12-h incubation by liquid-chromatography-coupled mass spectrometry (LC–MS); settings: 2 µM
[16] = The drug is tested on Dorea formicigenerans strain: ATCC27755 for biotransformation. The drug concentrations were measured before and after a 12-h incubation by liquid-chromatography-coupled mass spectrometry (LC–MS); settings: 2 µM
[17] = The drug is tested on Bacteroides uniformis strain: ATCC8492 for biotransformation. The drug concentrations were measured before and after a 12-h incubation by liquid-chromatography-coupled mass spectrometry (LC–MS); settings: 2 µM
[18] = The drug is tested on Eubacterium hallii strain: DSM3353 for biotransformation. The drug concentrations were measured before and after a 12-h incubation by liquid-chromatography-coupled mass spectrometry (LC–MS); settings: anaerobutyricum hallii, 2 µM
[19] = The drug is tested on Eggerthella lenta strain: ATCC25559 for biotransformation. The drug concentrations were measured before and after a 12-h incubation by liquid-chromatography-coupled mass spectrometry (LC–MS); settings: 2 µM
[20] = The drug is tested on Bacteroides fragilis strain: HMW615 for biotransformation. The drug concentrations were measured before and after a 12-h incubation by liquid-chromatography-coupled mass spectrometry (LC–MS); settings: 2 µM

Measured: Bacterial Biotransformation

CN1C[C@H](C(=O)N[C@]2(C)O[C@@]3(O)[C@@H]4CCCN4C(=O)[C@H](Cc4ccccc4)N3C2=O)C=C2c3cccc4[nH]cc(c34)C[C@H]21.CN1C[C@H](C(=O)N[C@]2(C)O[C@@]3(O)[C@@H]4CCCN4C(=O)[C@H](Cc4ccccc4)N3C2=O)C=C2c3cccc4[nH]cc(c34)C[C@H]21.O=C(O)C(O)C(O)C(=O)O [ERGOTAMINE TARTRATE]
Compound NOT metabolized: [1] | [16] | [19]
not listed: [20]
Compound metabolized: all other assays above

CCCC(=O)Nc1ccc(OCC(O)CNC(C)C)c(C(C)=O)c1 (centres undefined) [ACEBUTOLOL]
not listed: [1] | [10] | [20]
Compound NOT metabolized: all other assays above

CC#C[C@]1(O)CC[C@H]2[C@@H]3CCC4=CC(=O)CCC4=C3[C@@H](c3ccc(N(C)C)cc3)C[C@@]21C [MIFEPRISTONE]
Compound metabolized: [9] | [10]
not listed: [1] | [8] | [15]
Compound NOT metabolized: all other assays above

CSc1ccc2c(c1)C(N1CCN(C)CC1)Cc1ccccc1S2.O=C(O)/C=C\C(=O)O (centres undefined)
Compound metabolized: [5] | [9] | [17]
not listed: [20]
Compound NOT metabolized: all other assays above

CC[C@H](C)C(=O)O[C@H]1CCC=C2C=C[C@H](C)[C@H](CC[C@@H]3C[C@@H](O)CC(=O)O3)[C@H]21 [MEVASTATIN]
not listed: [7] | [20]
Compound metabolized: all other assays above

CC(C)(Oc1ccc(CCNC(=O)c2ccc(Cl)cc2)cc1)C(=O)O [BEZAFIBRATE]
Compound NOT metabolized: [1] | [2] | [3] | [6]
not listed: [20]
Compound metabolized: all other assays above

CNC(=C[N+](=O)[O-])NCCSCc1ccc(CN(C)C)o1 [RANITIDINE]
Compound NOT metabolized: [5] | [11] | [12] | [14] | [15] | [17] | [20]
not listed: [1]
Compound metabolized: all other assays above

CCCc1nc(C(C)(C)O)c(C(=O)OCc2oc(=O)oc2C)n1Cc1ccc(-c2ccccc2-c2nnn[nH]2)cc1 [OLMESARTAN MEDOXOMIL]
Compound NOT metabolized: [6] | [7]
not listed: [1] | [11] | [14] | [20]
Compound metabolized: all other assays above
